From patent US12668600B2 (Kumquat Biosciences Inc., priority 2023, dated 2026)

Key:
Type in all cases: biochemical
KRAS G12D = target: T1, KRAS G12D (Homo sapiens, UniProt P01116, G12D); assay: HTRF KRAS-SOS1 interaction assay, KRAS G12D; conditions: binned ≤2 μM / >2 μM, read-out: Inhibition of KRAS G12D (IC50)
T1 construct: made in house; host or cells: E. coli, e.g. BL21 (DE3)
Procedure, shortened: (§1)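 Inhibition of the KRAS–SOS1 interaction was measured by HTRF (ex 337, em 620/665 nm) after ≥~10 min incubation. Donor: anti-GST-Eu on GST-KRAS; acceptor: anti-6His-XL665 on His-hSOS1, in HEPES pH 7.4 buffer with DTT, BSA and Igepal. Compounds in duplicate at 0.01–10 μM; IC50 from emission ratio.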

KRAS G12V = target: T2, KRAS G12V (Homo sapiens, UniProt P01116, G12V); assay: HTRF KRAS-SOS1 interaction assay, KRAS G12V; conditions: binned ≤2 μM / >2 μM, read-out: Inhibition of KRAS G12V (IC50)
T2 construct: made in house; host or cells: E. coli, e.g. BL21 (DE3)
Procedure, shortened: as §1

KRAS G12S = target: T3, KRAS G12S (Homo sapiens, UniProt P01116, G12S); assay: HTRF KRAS-SOS1 interaction assay, KRAS G12S; conditions: binned ≤2 μM / >2 μM, read-out: Inhibition of KRAS G12S (IC50)
T3 construct: made in house; host or cells: E. coli, e.g. BL21 (DE3)
Procedure, shortened: as §1

KRAS WT = target: T4, KRAS WT (Homo sapiens, UniProt P01116); assay: HTRF KRAS-SOS1 interaction assay, wildtype KRAS; conditions: binned ≤2 μM / >2 μM, read-out: Inhibition of KRAS WT (IC50)
T4 construct: made in house; host or cells: E. coli, e.g. BL21 (DE3)
Procedure, shortened: as §1

Measured: IC50

T3 sequence (P01116 1-188 isoform P01116-2 G12S): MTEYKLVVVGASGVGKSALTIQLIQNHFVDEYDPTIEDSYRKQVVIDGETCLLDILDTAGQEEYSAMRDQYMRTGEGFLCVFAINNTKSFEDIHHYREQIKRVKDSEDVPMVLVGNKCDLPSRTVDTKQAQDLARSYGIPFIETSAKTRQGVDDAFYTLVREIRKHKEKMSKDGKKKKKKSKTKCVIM
T2 sequence (P01116 1-188 isoform P01116-2 G12V): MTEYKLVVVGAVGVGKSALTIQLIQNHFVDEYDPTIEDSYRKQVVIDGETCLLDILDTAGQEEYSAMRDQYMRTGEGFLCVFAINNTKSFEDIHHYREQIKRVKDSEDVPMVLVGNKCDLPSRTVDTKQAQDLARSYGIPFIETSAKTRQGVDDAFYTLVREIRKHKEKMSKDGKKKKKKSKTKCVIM
T4 sequence (P01116 1-188 isoform P01116-2): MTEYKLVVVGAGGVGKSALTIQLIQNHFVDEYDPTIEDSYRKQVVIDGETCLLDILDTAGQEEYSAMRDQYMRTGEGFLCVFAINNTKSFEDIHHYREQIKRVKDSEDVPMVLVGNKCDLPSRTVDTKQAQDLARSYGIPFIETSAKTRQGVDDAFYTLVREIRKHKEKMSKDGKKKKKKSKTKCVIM
T1 sequence (P01116 1-188 isoform P01116-2 G12D): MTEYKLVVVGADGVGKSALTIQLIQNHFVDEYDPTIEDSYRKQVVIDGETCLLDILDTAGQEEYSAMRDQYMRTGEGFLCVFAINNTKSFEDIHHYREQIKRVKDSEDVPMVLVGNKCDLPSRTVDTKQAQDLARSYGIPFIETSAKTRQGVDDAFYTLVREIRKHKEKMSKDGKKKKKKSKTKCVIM

CC[S+]([O-])[C@H]1CN2CCC[C@@]2(COc2nc3c4c(c(Cl)c(-c5ccc(F)c6sc(N)c(C#N)c56)c(F)c4n2)OCCN3[C@H](C)c2cccnc2N)C1 (mixture of isomers) [Compound 906, 2-amino-4-(4-((R)-1-(2-aminopyridin-3-yl)ethyl)-8-chloro-2-(((2R,7aS)-2-(ethylsulfinyl)tetrahydro-1H-pyrrolizin-7a(5H)-yl)methoxy)-10-fluoro-5,6-dihydro-4H-[1,4]oxazepino[5,6,7-de]quinazolin-9-yl)-7-fluorobenzo[b]thiophene-3-carbonitrile]
≤ 2000 nM: all assays above

N#Cc1c(N)sc2c(F)ccc(-c3c(C(F)(F)F)c4c5c(nc(OC[C@@]67CCCN6C[C@H](F)C7)nc5c3F)N([C@H](CC3CC3)c3cccnc3N)CCO4)c12 (single isomer, unassigned) [Compound 753]
≤ 2000 nM: all assays above

C[C@H](c1cccnc1N)N1CCOc2c(Cl)c(-c3ccc(F)c4sc(N)c(C#N)c34)c(F)c3nc(OCC45CCCC4CCC5)nc1c23 (single isomer, unassigned) [Compound 914]
≤ 2000 nM: all assays above

N#Cc1c(N)sc2c(F)ccc(-c3c(C(F)(F)F)c4c5c(nc(OCC6(CN7CCC(=CF)CC7)CC6)nc5c3F)N([C@H](CCC3CCOCC3)c3cccnc3N)CCO4)c12 [Compound 905, 2-amino-4-(4-((R)-1-(2-aminopyridin-3-yl)-3-(tetrahydro-2H-pyran-4-yl)propyl)-10-fluoro-2-((1-((4-(fluoromethylene)piperidin-1-yl)methyl)cyclopropyl)methoxy)-8-(trifluoromethyl)-5,6-dihydro-4H-[1,4]oxazepino[5,6,7-de]quinazolin-9-yl)-7-fluorobenzo[b]thiophene-3-carbonitrile]
≤ 2000 nM: all assays above

C[C@H](c1cccnc1N)N1CCOc2c(C(F)(F)F)c(-c3ccc(F)c4sc(N)c(C#N)c34)c(F)c3nc(OC[C@@]45CCCN4CC(CN(C)C)C5)nc1c23 (mixture of isomers) [Compound 721, 2-amino-4-(4-((R)-1-(2-aminopyridin-3-yl)ethyl)-2-(((7aS)-2-((dimethylamino)methyl)tetrahydro-1H-pyrrolizin-7a(5H)-yl)methoxy)-10-fluoro-8-(trifluoromethyl)-5,6-dihydro-4H-[1,4]oxazepino[5,6,7-de]quinazolin-9-yl)-7-fluorobenzo[b]thiophene-3-carbonitrile]
≤ 2000 nM: all assays above

CO[C@H]1CCN(C)[C@@H]1[C@H](C)Oc1nc2c3c(c(C(F)(F)F)c(-c4ccc(F)c5sc(N)c(C#N)c45)c(F)c3n1)OCCN2[C@H](CCC(F)(F)F)c1cccnc1N [Compound 649, 2-amino-4-(4-((R)-1-(2-aminopyridin-3-yl)-4,4,4-trifluorobutyl)-10-fluoro-2-((S)-1-((2R,3S)-3-methoxy-1-methylpyrrolidin-2-yl)ethoxy)-8-(trifluoromethyl)-5,6-dihydro-4H-[1,4]oxazepino[5,6,7-de]quinazolin-9-yl)-7-fluorobenzo[b]thiophene-3-carbonitrile]
≤ 2000 nM: all assays above

Cc1ccnc(N)c1[C@@H](C)N1CCOc2c(C(F)(F)F)c(-c3ccc(F)c4sc(N)c(C#N)c34)c(F)c3nc(OC[C@@]45CCCN4C[C@H](F)C5)nc1c23 (single isomer, unassigned) [Compound 821]
≤ 2000 nM: all assays above

CCON=C(C)CC[C@H](c1cccnc1N)N1CCOc2c(C(F)(F)F)c(-c3ccc(F)c4sc(N)c(C#N)c34)c(F)c3nc(OC[C@@]45CCCN4C[C@H](F)C5)nc1c23 (mixture of isomers) [Compound 789, 2-amino-4-(4-((R)-1-(2-aminopyridin-3-yl)-4-(ethoxyimino)pentyl)-10-fluoro-2-(((2R,7aS)-2-fluorotetrahydro-1H-pyrrolizin-7a(5H)-yl)methoxy)-8-(trifluoromethyl)-5,6-dihydro-4H-[1,4]oxazepino[5,6,7-de]quinazolin-9-yl)-7-fluorobenzo[b]thiophene-3-carbonitrile]
≤ 2000 nM: all assays above

C=CCC(c1cccnc1N)N1CCOc2c(Cl)c(-c3ccc(F)c4sc(N)c(C#N)c34)c(F)c3nc(OC[C@@]45CCCN4C[C@H](F)C5)nc1c23 (mixture of isomers) [Compound 623, 2-amino-4-((9R)-4-(1-(2-aminopyridin-3-yl)but-3-en-1-yl)-8-chloro-10-fluoro-2-(((2R,7aS)-2-fluorotetrahydro-1H-pyrrolizin-7a (5H)-yl)methoxy)-5,6-dihydro-4H-[1,4]oxazepino[5,6,7-de]quinazolin-9-yl)-7-fluorobenzo[b]thiophene-3-carbonitrile]
≤ 2000 nM: all assays above

Cc1c(F)c(N)cc(-c2nc3c4c(nc(OC[C@@]56CCCN5C[C@H](F)C6)nc4c2F)N([C@H](C)c2cccnc2N)C[C@H](C)O3)c1C(F)(F)F (single isomer, unassigned) [Compound 687]
≤ 2000 nM: all assays above

C[C@H](c1ccc(F)nc1N)N1CCOc2c(C(F)(F)F)c(-c3ccc(F)c4sc(N)c(C#N)c34)c(F)c3nc(OCC4(CN5CCC(F)CC5)CC4)nc1c23 [Compound 604, 2-amino-4-(4-((R)-1-(2-amino-6-fluoropyridin-3-yl)ethyl)-10-fluoro-2-((1-((4-fluoropiperidin-1-yl)methyl)cyclopropyl)methoxy)-8-(trifluoromethyl)-5,6-dihydro-4H-[1,4]oxazepino[5,6,7-de]quinazolin-9-yl)-7-fluorobenzo[b]thiophene-3-carbonitrile]
≤ 2000 nM: all assays above

C[C@H](c1ccc(CN)nc1N)N1CCOc2c(Cl)c(-c3ccc(F)c4sc(N)c(C#N)c34)c(F)c3nc(OC[C@@]45CCCN4C[C@H](F)C5)nc1c23 [Compound 813, 2-amino-4-(4-((R)-1-(2-amino-6-(aminomethyl)pyridin-3-yl)ethyl)-8-chloro-10-fluoro-2-(((2R,7aS)-2-fluorotetrahydro-1H-pyrrolizin-7a(5H)-yl)methoxy)-5,6-dihydro-4H-[1,4]oxazepino[5,6,7-de]quinazolin-9-yl)-7-fluorobenzo[b]thiophene-3-carbonitrile]
≤ 2000 nM: all assays above

C#Cc1c(F)ccc2cc(O)cc(-c3nc4c5c(nc(OC[C@@]67CCCN6C[C@H](F)C7)nc5c3F)N(C(C)c3cccnc3N)CCO4)c12 (mixture of isomers) [Compound 742, 4-(10-(1-(2-aminopyridin-3-yl)ethyl)-4-fluoro-2-(((2R,7aS)-2-fluorotetrahydro-1H-pyrrolizin-7a (5H)-yl)methoxy)-9,10-dihydro-8H-7-oxa-1,3,6,10-tetraazacyclohepta[de]naphthalen-5-yl)-5-ethynyl-6-fluoronaphthalen-2-ol]
≤ 2000 nM: all assays above
